Results reported in patent US20060122181A1, “Heteroaromatic pentacyclic compound and medicinal use thereof” (Japan Tobacco Inc., priority 2003, published 2006).
Structures can show the parent of a compound that is named as a salt. Values belong to the compound of their own block, whether it stands above or below them.

Columns and labels:
male db/db mice [1] = experiment: Effect of concomitant use with pioglitazone hydrochloride on hypoglycemic activity; format: in vivo; details: relative to control; for blood glucose decreasing rate (%) Day 3: 3 hours after administration
Method: To 8-week-old male db/db mice grouped according to full feed glucose level were orally administered a 0.5% methyl cellulose suspension of the test compound {note: Example 4-5 (10 mg/kg)} (test compound-administered group), a 0.5% methyl cellulose suspension of Pioglitazone hydrochloride (3 mg/kg) (Pioglitazone-administered group), simultaneously both a 0.5% methyl cellulose suspension of the test compound and a 0.5% methyl cellulose suspension (Pioglitazone hydrochloride 3 mg/kg) (test compound and Pioglitazone concomitant use group), or a 0.5% methyl cellulose solution alone (control group), once a day for 3 days.
(§1) Blood was drawn under fasting condition, which condition was started simultaneously with the administration by means of removing the feed. The blood was drawn under anesthesia from the orbital vein on day 1 of administration and 3 hours after the administration on day 3. The blood thus taken was centrifuged and the glucose level was measured from the obtained plasma by the hexokinase method (glucose kit). For evaluation, the percentage (%) of decrease in the glucose level of each group other than the control group relative to the control group is shown.

male db/db mice [2] = experiment: Effect of concomitant use with tolbutamide on hypoglycemic activity; format: in vivo; details: relative to control
Method: (§2) To 10-week-old male db/db mice grouped according to glucose level were orally administered a 0.5% methyl cellulose suspension of the test compound {note: Example 4-5 (5 mg/kg)} (test compound-administered group), a 0.5% methyl cellulose suspension of tolbutamide (30 mg/kg) (tolbutamide-administered group), simultaneously both a 0.5% methyl cellulose suspension of the test compound and a 0.5% methyl cellulose suspension (tolbutamide 30 mg/kg) (test compound and tolbutamide concomitant use group), or a 0.5% methyl cellulose solution alone (control group).
as §1, with “5” for “on day 1 of administration and 3”, “administration.” for “administration on day 3.”, “(glucose measurement” for “(glucose”

male db/db mice [3] = experiment: Effect of concomitant use with nateglinide on hypoglycemic activity; format: in vivo; details: relative to control
Method: as §2, with “nateglinide” for “tolbutamide”, “(nateglinide-administered” for “(tolbutamide-administered”, “(nateglinide” for “(tolbutamide”
as §1, with “2” for “on day 1 of administration and 3”, “administration.” for “administration on day 3.”, “(glucose measurement” for “(glucose”

female ob/ob mice [4] = experiment: Effect of concomitant use with glibenclamide on hypoglycemic activity; format: in vivo; details: relative to control
Method: as §2, with “female ob/ob” for “male db/db”, “4-2 (1” for “4-5 (5”, “glibenclamide (3” for “tolbutamide (30”, “(glibenclamide-administered” for “(tolbutamide-administered”, “(glibenclamide 3” for “(tolbutamide 30”, “glibenclamide” for “tolbutamide”
as §1, with “The blood was drawn under anesthesia from the orbital vein on day 1 of administration and 3 hours after the administration on day 3.” left out

female ob/ob mice [5] = experiment: Effect of concomitant use with metformin hydrochloride on hypoglycemic activity; format: in vivo; details: relative to control
Method: (§3) To 10-week-old female ob/ob mice grouped according to glucose level were orally administered a 0.5% methyl cellulose suspension of the test compound {note: Example 4-2 (1 mg/kg)} (test compound-administered group), a 0.5% methyl cellulose suspension of metformin chloride (30 mg/kg) (metformin-administered group), simultaneously both a 0.5% methyl cellulose suspension of the test compound and a 0.5% methyl cellulose suspension (metformin chloride 30 mg/kg) (test compound and metformin concomitant use group), or a 0.5% methyl cellulose solution alone (control group). The ob/ob mice were fasted for 3 hours before administration.
as §1, with “3” for “on day 1 of administration”, “5” for “3”, “administration.” for “administration on day 3.”

female ob/ob mice [6] = experiment: Effect of concomitant use with voglibose on hypoglycemic activity (sucrose loading); format: in vivo; details: after sucrose loading 2 g/kg, relative to control
Method: as §3, with “9-week-old” for “10-week-old”, “voglibose (0.3” for “metformin chloride (30”, “(voglibose-administered” for “(metformin-administered”, “(voglibose 0.3” for “(metformin chloride 30”, “voglibose” for “metformin”, “One hour later, sucrose (2 g/5 mL/kg) was loaded.” for “The ob/ob mice were fasted for 3 hours before administration.”
as §1, with “loading” for “administration”, “vein” for “vein on day”, “1” for “1 of administration”, “2” for “3”, “sucrose loading.” for “administration on day 3.”

male SD rats = experiment: Effect of concomitant use with insulin on hypoglycemic activity; format: in vivo; details: 1 hour after vs before insulin
Method: For drawing blood, the animals were fasted after insulin administration. The blood thus taken was centrifuged and the glucose level was measured from the obtained plasma by the hexokinase method (glucose measurement kit). For evaluation, the percentage (%) of decrease in the glucose level of the test compound and insulin concomitant use group and insulin administration group one hour later relative to before insulin administration is shown.

[7] = Pioglitazone hydrochloride 3 mg/kg oral once a day alone
[8] = test compound 5 mg/kg oral alone
[9] = test compound 10 mg/kg + Pioglitazone hydrochloride 3 mg/kg oral once a day
[10] = test compound 10 mg/kg oral once a day alone
[11] = test compound 1 mg/kg + glibenclamide 3 mg/kg oral
[12] = test compound 1 mg/kg oral alone
[13] = test compound 1 mg/kg + metformin chloride 30 mg/kg oral, ob/ob mice
[14] = test compound 1 mg/kg oral alone, ob/ob mice fasted 3 hours before administration
[15] = test compound 1 mg/kg + voglibose 0.3 mg/kg oral
[16] = metformin chloride 30 mg/kg oral alone, ob/ob mice

SMILES: CCc1ccc(CCOc2ccc(CC3SC(=O)NC3=O)cc2)nc1 (stereo not shown) [Pioglitazone, pioglitazone hydrochloride, reference compound]
blood glucose decreasing rate (%) Day 3 (male db/db mice [1]; [7]): 44%
blood glucose decreasing rate (%) Day of start of administration (male db/db mice [1]; [7]): 11%

melting point: 153 to 155 °C
SMILES: CCCC(CCC)c1ccc(OCc2ccc(-c3ccc(COc4cncc(C(=O)O)c4)s3)cc2)cc1 [Example 4-5]
blood glucose decreasing rate (%) 5 hours later (male db/db mice [2]; test compound 5 mg/kg + tolbutamide 30 mg/kg oral): 30%
blood glucose decreasing rate (%) 5 hours later (male db/db mice [2]; [8]): 26%
blood glucose decreasing rate (%) 2 hours later (male db/db mice [3]; test compound 5 mg/kg + nateglinide 30 mg/kg oral): 19%
blood glucose decreasing rate (%) 2 hours later (male db/db mice [3]; [8]): 11%
blood glucose decreasing rate (%) Day 3 (male db/db mice [1]; [9]): 48%
blood glucose decreasing rate (%) Day of start of administration (male db/db mice [1]; [9]): 30%
blood glucose decreasing rate (%) Day 3 (male db/db mice [1]; [10]): 32%
blood glucose decreasing rate (%) Day of start of administration (male db/db mice [1]; [10]): 24%

SMILES: CCCC(CCC)c1ccc(OCc2ccc(-c3csc(COc4cncc(C(=O)O)c4)c3)cc2)cc1 [Example 4-2, 5-(4-{4-[4-(1-Propylbutyl)phenoxymethyl]phenyl}thiophen-2-ylmethoxy)nicotinic acid]
blood glucose decreasing rate (%) 3 hours later (female ob/ob mice [4]; [11]): 64%
blood glucose decreasing rate (%) 15 hours later (female ob/ob mice [4]; [11]): 60%
blood glucose decreasing rate (%) 3 hours later (female ob/ob mice [4]; [12]): 48%
blood glucose decreasing rate (%) 15 hours later (female ob/ob mice [4]; [12]): 20%
blood glucose decreasing rate (%) 3 hours later (female ob/ob mice [5]; [13]): 40%
blood glucose decreasing rate (%) 5 hours later (female ob/ob mice [5]; [13]): 51%
blood glucose decreasing rate (%) 3 hours later (female ob/ob mice [5]; [14]): 19%
blood glucose decreasing rate (%) 5 hours later (female ob/ob mice [5]; [14]): 20%
blood glucose decreasing rate (%) 1 hour later (female ob/ob mice [6]; [15]): 49%
blood glucose decreasing rate (%) 2 hours later (female ob/ob mice [6]; [15]): 54%
blood glucose decreasing rate (%) 1 hour later (female ob/ob mice [6]; [12]): 32%
blood glucose decreasing rate (%) 2 hours later (female ob/ob mice [6]; [12]): 40%

SMILES: CC(C)[C@H]1CC[C@H](C(=O)N[C@H](Cc2ccccc2)C(=O)O)CC1 [Nateglinide, nateglinide, reference compound]
blood glucose decreasing rate (%) 2 hours later (male db/db mice [3]; nateglinide 30 mg/kg oral alone): 5%

SMILES: OCC(CO)N[C@H]1C[C@](O)(CO)[C@@H](O)[C@H](O)[C@H]1O [Voglibose, voglibose, reference compound]
blood glucose decreasing rate (%) 1 hour later (female ob/ob mice [6]; voglibose 0.3 mg/kg oral alone): 35%
blood glucose decreasing rate (%) 2 hours later (female ob/ob mice [6]; voglibose 0.3 mg/kg oral alone): 38%

SMILES: CN(C)C(=N)N=C(N)N [Metformin, metformin hydrochloride, reference compound]
blood glucose decreasing rate (%) 3 hours later (female ob/ob mice [5]; [16]): 17%
blood glucose decreasing rate (%) 5 hours later (female ob/ob mice [5]; [16]): 39%

SMILES: CCCC(CCC)c1ccc(CN(C)c2ccc(-c3csc(CN(CC(=O)[O-])Cc4ccccc4)n3)cc2)cc1.[Na+] [Example 3-40]
blood glucose decreasing rate (%) Day of start of administration (male SD rats; test compound 30 mg/kg oral once a day + insulin 0.6 U/kg s.c. 3 hours later): 43%
blood glucose decreasing rate (%) Day 8 (male SD rats; test compound 30 mg/kg oral once a day for 8 days + insulin 0.6 U/kg s.c.): 36%

SMILES: CCCCNC(=O)NS(=O)(=O)c1ccc(C)cc1 [Tolbutamide, tolbutamide, reference compound]
blood glucose decreasing rate (%) 5 hours later (male db/db mice [2]; tolbutamide 30 mg/kg oral alone): 26%
